# Assay results published in patent US20240261292A1, “COMBINATION THERAPIES” (Janssen Pharmaceutica NV, priority 2021, published 2024).
# pIC50: −log10 of the molar value.
# How the values were obtained:
# OCI-AML3 cells [1] = test: In vitro proliferation (spheroid, Incucyte), menin-MLL inhibitor with DHODH inhibitor, OCI-AML3; type: cell-based, human; settings: 8 days
# Text: Spheroid-like growth was monitored in real-time by non-invasive live-cell imaging using the 4× objective of the Incucyte ZOOM live cell imaging system (Essen BioScience), and acquiring images on Day 8. […] The DMSO content was normalized to 0.3% and the percent confluence from the DMSO well was used as baseline response. […] Data from 2 independent experiments from MOLM-13 or 3 independent experiments from OCI-AML3 cells were pooled and analyzed.
# MOLM-13 tumors = test: Efficacy of menin-MLL inhibitor in combination with DHODH inhibitor in MOLM-13 (KMT2A-r) IV model; type: in vivo; settings: MOLM-13 IV, NSG mice
# Text: 15) In Vivo Efficacy of Menin-MLL Inhibitor in Combination with DHODH Inhibitor in Disseminated Models of Human Acute Myeloid Leukemia (MOLM-13 and OCI-AML) 15A) Efficacy of Menin-MLL Inhibitor in Combination with DHODH Inhibitor in MOLM-13 (KMT2A-r) IV Model in NSG Mice
# Day 0 is the day of tumor cell implantation and study initiation. In the MOLM-13 efficacy study, mice bearing IV MOLM-13 xenograft tumors were randomly assigned to treatment groups 5 days post-tumor cell engraftment.
# OCI-AML3 tumors = test: Efficacy of menin-MLL inhibitor in combination with DHODH inhibitor in OCI-AML3 (NPM1c) IV model; type: in vivo; settings: NSG mice
# Text: 15B) Efficacy of Menin-MLL Inhibitor in Combination with DHODH Inhibitor in OCI-AML3 (NPM1c) IV Model in NSG Mice In the OCI-AML3 efficacy study, mice bearing IV OCI-AML3 xenograft tumors were randomly assigned to treatment groups 5 days post-tumor cell engraftment.
# OCI-AML3 cells [2] = test: Proliferation assay (spheroid), OCI-AML3; type: cell-based, human; settings: 8 days
# Experimental: The anti-proliferative effect of menin/MLL protein/protein interaction inhibitor test compounds was assessed inhuman leukemia cell lines. The cell line MOLM-14 harbors a MLL translocation and expresses the MLL fusion protein MLL-AF9, respectively, as well as the wildtype protein from the second allele. OCI-AML3 cells that carry the NPM1c gene mutation were also tested. […] KO-52 was used as a control cell line containing two MLL (KMT2A) wildtype alleles in order to exclude compounds that display general cytotoxic effects.
# KO-52 and OCI-AML3 cell lines were propagated in alpha-MEM (Sigma Aldrich) supplemented with 20% heat-inactivated fetal bovine serum (HyClone), 2 mM L-glutamine (Sigma Aldrich) and 50 μg/ml gentamycin (Gibco).
# In order to assess the anti-proliferative effects, 200 MOLM-14 cells, 200 OCI-AML3 cells or 300 KO-52 cells were seeded in 200 μl media per well in 96-well round bottom, ultra-low attachment plates (Costar, catalogue number 7007). Cell seeding numbers were chosen based on growth curves to ensure linear growth throughout the experiment. Test compounds were added at different concentrations and the DMSO content was normalized to 0.3%. Cells were incubated for 8 days at 37° C. and 5% CO2. Spheroid like growth was measured in real-time by live-cell imaging (IncuCyteZOOM, Essenbio, 4× objective) acquiring images at day 8. Confluence (%) as a measure of spheroid size was determined using an integrated analysis tool.
# In order to determine the effect of the test compounds over time, the confluence in each well as a measure of spheroid size, was calculated. Confluence of the highest dose of a reference compound was used as baseline for the LC (Low control) and the confluence of DMSO treated cells was used as 0% cytotoxicity (High Control, HC).
# HC=High Control: Mean confluence (%) (DMSO treated cells);
# Dose-response equation was used for the plot of % Effect vs Log10 compound concentration with a variable slope and fixing the maximum to 100% and the minimum to 0%. 2b) MEIS1 mRNA Expression Assay
# [3] = test system: iCell Cardiomyocytes2 (hSC-CMs); test: Ca2+-fluorescence assay in human pluripotent stem cell-derived cardiomyocytes (CTCM human); type: cell-based; parameters: key to Hazard Scoring Color @ 0.1 μM / Hazard Scoring Color @ 0.2 μM / Hazard Scoring Color @ 0.5 μM / Hazard Scoring Color @ 1 μM / Hazard Scoring Color @ 2.5 μM / Hazard Scoring Color @ 5 μM / Hazard Scoring Color @ 0.3 μM / Hazard Scoring Color @ 3 μM / Hazard Scoring Color @ 10 μM / Hazard Scoring Color @ 30 μM: Green: No concern; Yellow: Low concern; Red: High concern; Black: Very high concern due to arrhythmic events
# Experimental: 7) Cardio-Electrophysiological Effects of the Testing Compounds in Synchronously Beating Human Pluripotent Stem Cell-Derived Cardiomyocytes (hSC-CMs) Using a Ca^2+-Fluorescence Assay (CTCM Human)
# Compounds were tested in the 96-well plates.
# Compounds were tested at 0.1 μM, 0.2 μM, 0.5 μM, 1 μM, 2.5 μM and 5 μM (n=4 per dose) on Cor.4U®-Cardiomyocytes or on iCell® Cardionyocytes2.
# Alternatively, compounds were tested at 0.1 μM, 0.3 μM; 1 μM, 3 μM, 10 μM and 30 μM (n=4 per dose) mostly on iCell® Cardiomyocytes2.
# Vehicle control: Dimethylsulfoxide (DMSO). The solutions of the compound in DMSO or its solvent (final concentration of 0.1% DMSO; n=8).
# Tested compounds were dissolved in DMSO at 1000-fold the intended concentrations. A compound “mother-plate” was made, containing the test compounds and positive and negative controls at 1000-fold the final concentrations. At the experiment day, these stock solutions were diluted with Tyrode (Sigma), supplemented with 10 mM HEPES (Gibco), to 2-fold the intended concentration (in round bottom compound plates). Final DMSO concentration in test solutions and vehicle control was 0.1%.
# hSC-CMs (Cor.4U® Cardiomyocytes) were obtained from CDI (Ncardia, Germany). Cells are pre-plated and seeded in fibronectin-coated 96-well plates at a density suited to form a monolayer and maintained in culture in a stage incubator (37° C., 5% CO2), according to the instructions of the cell provider.
# Second line hSC derived cardiomyocyte called iCell® Cardiomyocytes2 were purchased from FUJIFILM Cellular Dynamics (USA). The experiments with test drugs are carried out 5 to 7 days after plating the cells onto the plate to have a living, beating monolayer of hiPSC-derived cardiomyocytes. The beating monolayer in 96-well-plates are normally taken from 2 Vials of frozen iCell® Cardiomyocytes2 (≈5 million cells/vial), which will be plated onto three 96-well plates (≈50K/well).
# At least one hour before the start of the experiments the normal cell medium was replaced with Tyrode solution with Calcium dye (see below).
# Cal 520 dye (AAT Bioquest) was dissolved in 11 ml of Tyrode supplemented with 10 mM HEPES and warmed up to 37 C before adding to the cells.
# 35 μl cell culture medium was removed from each well and replaced with 35 μl of pre-warmed Cal 520 dye solution and cell plate was incubated for 45 min at 37° C./5% CO2. Cells were incubated for 5 min at 37° C.
# Spontaneous electrical activity is recorded, using Cal520™ (AAT Bioquest) calcium fluorescence-dye signalling. This dye integrates the total intracellular calcium activity over the whole well. A bottle of Ca1520 dye (50 μg, MW: 1103/mol) is dissolved with 50 μl DMSO as a stock solution of 0.9 mM. 50 μL of the stock solution of the dye was added to 10 ml Tryodes solution to have dye concentration of 4.5 μM. Subsequently, 35 μl of this dye solution was added into each well, to have a final dye concentration of 1.58 μM. The current dye protocol on this CTCM human assay was established recently (Ivan Kopljar et al, Journal of Pharmacological and toxicological methods 2018. 91: 80-86; Lu et al., Tox Sci 2019. 170 (2): 345-356).
# Fluorescent signals (Ca^2+ transient morphology) were measured using the Functional Drug Screen System (FDSS/μCell; Hamamatsu, Japan) and the recordings were subsequently analyzed off-line, using appropriate software e.g., Notocord.
# The cell plate was loaded into the FDSS/μCell for a test run: Ca^2+ transients were measured for 4 minutes to check for synchronous beating of the cardiomyocytes in each well. All 96 wells were measured simultaneously (sampling interval: 0.06 s, short exposure time: 10 ms; excitation wavelength 480 nm; emission wavelength 540 nm; FDSS/μCell warmed to 37° C.).
# During the compound addition step, 100 μl of the respective double-concentrated test solutions was pipetted into each well simultaneously.
# Data were analyzed off-line using appropriate software e.g., Notocord-Hem (version 4.3). […]
# [4] = Compound 22 0.0125 mg/kg (so in the source) PO daily 28 days
# [5] = Compound 22 0.063 mg/kg PO daily 28 days
# [6] = Compound 22 0.125 mg/kg PO daily 28 days
# [7] = Compound 22 0.25 mg/kg PO daily 28 days
# [8] = efficacious dose in mouse xenograft models of 30 mg/kg, (mouse, human), estimated
SMILES,"Growth inhibition, monotherapy (in words) (OCI-AML3 cells [1])",% ILS (MOLM-13 tumors; [4]),Median Survival (MOLM-13 tumors; [4]),% ILS (MOLM-13 tumors; [5]),Median Survival (MOLM-13 tumors; [5]),% ILS (OCI-AML3 tumors; [6]),Median Survival (OCI-AML3 tumors; [6]),% ILS (OCI-AML3 tumors; [7]),Median Survival (OCI-AML3 tumors; [7]),pIC50 (OCI-AML3 cells [2]),"Hazard Scoring Color @ 0.1 μM ([3]; 0.1 μM, 30 min, iCell Cardiomyocytes2 (Table 12))","Hazard Scoring Color @ 0.3 μM ([3]; 0.3 μM, 30 min, iCell Cardiomyocytes2 (Table 12))","Hazard Scoring Color @ 1 μM ([3]; 1 μM, 30 min, iCell Cardiomyocytes2 (Table 12))","Hazard Scoring Color @ 3 μM ([3]; 3 μM, 30 min, iCell Cardiomyocytes2 (Table 12))","Hazard Scoring Color @ 10 μM ([3]; 10 μM, 30 min, iCell Cardiomyocytes2 (Table 12))","Hazard Scoring Color @ 30 μM ([3]; 30 μM, 30 min, iCell Cardiomyocytes2 (Table 12))","Margin CTCM human 10 μM vs free Cmax [3, 8]","Margin CTCM human 30 μM vs free Cmax [3, 8]"
"CCn1c(CO)nn(-c2cc3c(C(C)C)cn(-c4ccccc4C)c(=O)c3cc2F)c1=O [Compound 22, 6-(4-Ethyl-3-(hydroxymethyl)-5-oxo-4,5-dihydro-1H-1,2,4-triazol-1-yl)-7-fluoro-4-isopropyl-2-(o-tolyl)isoquinolin-1(2H)-one]",potent growth inhibition,*125%,40.5,*111%,38,*60%,41.5,*65%,43,–,–,–,–,–,–,–,–,–
CCN(C(=O)c1cc(F)ccc1Oc1nncnc1N1CCC2(C1)CN([C@H](CCCN(C)CCOC)C(C)C)C2)C(C)C [Compound A1],–,–,–,–,–,–,–,–,–,7.10,Green,Green,Green,Green,Green,yellow,> 16,> 45
